Measured values reported in PMC13077603, “Fluorine‐18‐Labeled Nucleotide Analogs Targeting Ecto‐5'‐Nucleotidase (CD73) for Positron Emission Tomography Imaging of Solid Tumors” (Angewandte Chemie (International Ed. in English), 2026).
“And” between values parts separate entries of the source, which are not always exact repeats. Equal values may be shown once.

Tests used:
[1] = target: T1, CD73 in human breast cancer samples (Homo sapiens, UniProt P21589); experiment: Autoradiography on human breast tumor and sentinel lymph node cryosections; assay type: binding; details: autoradiography, cryosections
T1 construct: cryosections of breast tumor samples as well as sentinel lymph node samples were investigated; from tissue; host or cells: primary breast tumors and sentinel lymph nodes of two patients, 6 µm cryosections
T1 sequence (P21589 27-574): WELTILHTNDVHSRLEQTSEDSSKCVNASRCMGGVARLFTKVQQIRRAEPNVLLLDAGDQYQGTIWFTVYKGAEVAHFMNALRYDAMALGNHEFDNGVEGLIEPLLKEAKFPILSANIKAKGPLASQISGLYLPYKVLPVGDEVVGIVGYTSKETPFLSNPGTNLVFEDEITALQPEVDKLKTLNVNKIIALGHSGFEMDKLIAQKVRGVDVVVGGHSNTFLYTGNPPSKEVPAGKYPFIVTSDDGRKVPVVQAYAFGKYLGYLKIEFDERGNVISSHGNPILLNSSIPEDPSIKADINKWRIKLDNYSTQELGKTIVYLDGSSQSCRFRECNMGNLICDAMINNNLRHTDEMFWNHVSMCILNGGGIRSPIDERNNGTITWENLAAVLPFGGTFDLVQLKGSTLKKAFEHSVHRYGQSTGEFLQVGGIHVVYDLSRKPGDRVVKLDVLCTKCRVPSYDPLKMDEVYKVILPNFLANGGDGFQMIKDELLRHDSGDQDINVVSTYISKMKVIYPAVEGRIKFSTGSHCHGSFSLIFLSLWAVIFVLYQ
Description: To test specific radiotracer binding to its target, we performed in situ autoradiography. [^18F]2 was applied onto cryosections of neighboring slides of tumor tissues from primary breast tumors from patient X (Figure 4A) and patient Y (Figure 4B), used for immunohistochemistry and AMPase activity determination. Sentinel LN from patient Y was incubated with [^18F]1 (Figure 4C).
FIGURE 4 Autoradiographic imaging of ^18F‐labeled CD73 tracer binding to tissue samples of breast tumors and sentinel lymph nodes. Primary breast tumor (A, B) and LN cryosections (C) were incubated with [^18F]2 or [^18F]1 in the absence (control) and in the presence of an unlabeled CD73 inhibitor, AMPCP (13) or JMS04‐14 (14), as indicated. The samples were processed for autoradiographic analysis, as described in the materials and methods section. The white dotted lines outline the tissue boundaries. (D). Structures of CD73 inhibitors applied as blockers in this study.
For the assessment of ^18F-labeled CD73 tracer binding to human tissues, cryosections of breast tumor samples as well as sentinel lymph node samples were investigated. Cryosections were thawed and pre-incubated for 15 min at room temperature in 2-[4-(2-hydroxyethyl)piperazin-1-yl]ethanesulfonic acid buffer (HEPES). […] Blocking compounds were prepared according to the molar activity of the radiolabeled tracers [^18F]MRS-4648 and [^18F]PSB-19427 aiming at a 1000-fold excess of the blocking agent. For each tissue sample, neighboring sections were incubated for 20 min at room temperature with a mixture of 50µL of the radiotracer and 50µL of the classical CD73 inhibitor AMPCP (25 nmol, in PBS), or JMS0414 (61 nmol, in HEPES), or HEPES buffer respectively. After incubation, slides were washed three times with PBS and Aqua bidest, mounted on a slide holder for the image acquisition, and covered with protection and scintillation foils. Digital autoradiography measurement of each slide was performed for 60 minutes (Micro Imager, Biospace, France). Acquired data were corrected for radioactive decay in reference to the start of the acquisition as well as the start of the incubation.

[2] = target: Human serum albumin (HSA) (Homo sapiens, UniProt P02768); experiment: Plasma protein binding (human serum albumin binding); assay type: in vitro ADME; details: human serum albumin, read-out: Plasma protein binding (PPB) (converted)
Description: Human serum albumin (HSA) binding.
Plasma protein binding was determined following previously published procedure.^[38^]

[3] = Stability in mouse liver microsomes (MLM); assay type: in vitro ADME; details: after 90 min of coincubation, 5 µM compound, 37 °C
Description: An aqueous buffer of 75 mM PBS, 12.5 mM MgCl2, 0.6 mM NADPH, 1 mg/mL mouse liver microsomes and 5 µM of the respective compound was prepared. 200 µL of these samples were incubated for 90 min at 37 °C and […]. Afterward, acetonitrile/methanol (400 µL, 1:1) was added, and the samples were cooled to 0 °C for 10 min. 600 µL buffer was added and the solution was centrifuged for 15 min at 17,880 g. The supernatant was centrifuged again for 15 min at 17,880 g and 4 °C. The obtained solution was diluted with H2O/CH3CN/CH3OH (1:1:1) to a suitable concentration for quantification. Shortly before injection into HPLC, the solution was centrifuged again for 2 min at 17,880 g and 4 °C. The amount of remaining compound in the solution was quantified by ion count in SIM mode via HPLC-MS (CH3CN/water). The injection volume was 50 µL. Every experiment was performed in triplicate.

Chain of Human serum albumin (HSA) (P02768 25-609): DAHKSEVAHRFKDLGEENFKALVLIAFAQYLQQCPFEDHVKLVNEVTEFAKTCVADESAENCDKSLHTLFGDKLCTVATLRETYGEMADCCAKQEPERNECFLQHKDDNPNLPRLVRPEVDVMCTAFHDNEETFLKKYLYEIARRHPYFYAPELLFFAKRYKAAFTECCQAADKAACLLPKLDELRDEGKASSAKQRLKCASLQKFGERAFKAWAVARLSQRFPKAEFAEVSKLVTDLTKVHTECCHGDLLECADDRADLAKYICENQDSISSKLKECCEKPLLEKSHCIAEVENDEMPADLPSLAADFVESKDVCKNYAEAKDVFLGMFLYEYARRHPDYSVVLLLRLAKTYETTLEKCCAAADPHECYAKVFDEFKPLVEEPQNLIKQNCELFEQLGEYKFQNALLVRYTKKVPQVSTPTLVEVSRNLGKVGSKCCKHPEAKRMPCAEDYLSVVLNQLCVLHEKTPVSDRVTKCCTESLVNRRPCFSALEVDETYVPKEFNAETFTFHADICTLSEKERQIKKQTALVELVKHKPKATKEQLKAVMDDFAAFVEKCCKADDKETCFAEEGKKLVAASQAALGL

Tracer binding to CD73 in human breast cancer samples [1] | fraction unbound [2] | Metabolic stability in mouse liver microsomes (MLM): % decomposition [3] | Structure (SMILES)
selectively bind | – | – | CCCN(Cc1ccc(-c2cn(CC[18F])nn2)cc1)c1nc(Cl)nc2c1ncn2[C@@H]1O[C@H](COP(=O)(O)CP(=O)(O)O)[C@@H](O)[C@H]1O [[^18F]1, [^18F]-[((2R,3S,4R,5R)-5-{2-chloro-6-[(4-{1-[2-(fluoro)ethyl]-1H-1,2,3-triazol-4-yl}benzyl)-(propyl)amino]-9H-purin-9-yl}-3,4-dihydroxytetrahydrofuran-2-yl)methoxy]methylene-bisphosphonic acid]
selectively bind | – | – | Cn1c(=O)n([C@@H]2O[C@H](COP(=O)(O)CP(=O)(O)O)[C@@H](O)[C@H]2O)cc/c1=N/OCc1ccc(-c2cn(CC[18F])nn2)cc1 [[^18F]2, [^18F]-{[(2R,3S,4R,5R)-5-(4-{[(4-{1-[2-(fluoro)ethyl]-1H-1,2,3-triazol-4-yl}benzyl)-oxy]imino}-3-methyl-2-oxo-3,4-dihydropyrimidin-1(2H)-yl)-3,4-dihydroxytetra-hydrofuran-2-yl]methoxy}methylenebisphosphonic acid]
– | < 0.01 | 17 ± 2% and 17% | CCCN(Cc1ccc(-c2cn(CCF)nn2)cc1)c1nc(Cl)nc2c1ncn2[C@@H]1O[C@H](COP(=O)(O)CP(=O)(O)O)[C@@H](O)[C@H]1O [compound 1]
